# Measurements as given in patent publication US7317038B2, “Nerve regeneration promoters containing semaphorin inhibitor as the active ingredient” (Dainippon Sumitomo Pharma Co., Ltd., priority 2000, dated 2008).
# Entries after “also recorded” stand apart in the source; their conditions may differ.
# Key:
# Sema3A = target: T1, Sema3A (Mus musculus, UniProt O08665); experiment: Inhibition of collapse activity by contact of Sema3A and the inhibitor (Pre-Mix); assay type: cell-based; settings: final concentration 0.05 μg/ml
# T1 construct: expressed in transfected cells; host or cells: COS7
# T1 sequence (O08665 21-772): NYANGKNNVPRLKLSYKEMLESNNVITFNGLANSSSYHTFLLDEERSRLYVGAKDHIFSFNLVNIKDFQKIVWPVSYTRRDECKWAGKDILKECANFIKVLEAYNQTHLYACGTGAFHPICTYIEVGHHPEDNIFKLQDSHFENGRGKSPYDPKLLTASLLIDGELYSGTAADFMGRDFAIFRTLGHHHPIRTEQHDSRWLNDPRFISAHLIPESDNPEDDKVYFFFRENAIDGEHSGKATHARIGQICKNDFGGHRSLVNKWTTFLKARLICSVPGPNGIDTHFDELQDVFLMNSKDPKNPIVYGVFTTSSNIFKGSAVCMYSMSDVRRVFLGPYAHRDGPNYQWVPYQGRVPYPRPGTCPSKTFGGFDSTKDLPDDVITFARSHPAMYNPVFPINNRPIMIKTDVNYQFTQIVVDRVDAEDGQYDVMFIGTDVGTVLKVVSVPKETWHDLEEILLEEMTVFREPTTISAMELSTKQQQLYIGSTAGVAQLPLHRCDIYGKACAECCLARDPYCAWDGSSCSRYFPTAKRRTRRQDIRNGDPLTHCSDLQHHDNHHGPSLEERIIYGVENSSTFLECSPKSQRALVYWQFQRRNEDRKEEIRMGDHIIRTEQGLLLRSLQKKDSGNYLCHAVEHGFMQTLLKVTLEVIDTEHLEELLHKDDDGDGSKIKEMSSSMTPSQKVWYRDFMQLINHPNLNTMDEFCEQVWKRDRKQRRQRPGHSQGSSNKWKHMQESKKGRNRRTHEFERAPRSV
# Excerpt: For example, the inhibitory activity of SPF-3059-1 for the binding of Sema3A to Neuropilin-1 was actually examined by using the alkaline phosphatase-fused Sema3A (=Sema3A-AP) and Neuropilin-1-expressing COS7 cells. SPF-3059-1 is a compound discovered by the present inventors, which inhibits both collapse and neurite outgrowth inhibition induced by semaphorin 3A (Sema3A). […] Further, in order to elucidate the mechanism of the said inhibition, that is, in order to elucidate whether SPF-3059-1 interacts with Sema3A or with its receptor, the comparison was made by measuring collapse activity between (1) the collapse activity which was observed when a sample, to which SPF-3059-1 and Sema3A were mixed in advance at the concentration raising sufficient inhibitory activity (0.25 μg/ml of SPF-3059-1), was added to the culture solution of dorsal root ganglions and (2) the collapse activity which was observed when Sema3A was added to the above-mentioned culture solution after the addition of SPF-3059-1. The final concentration of SPF-3059-1 (0.05 μg/ml) in the culture solution was the same both for (1) and (2). […] From the above considerations, SPF-3059-1 is thought to act by a mechanism in which the binding of Sema3A to the receptor is inhibited by the direct action of SPF-3059-1 on Sema3A. […]
# COS7 cells = experiment: Effect on cell proliferation (MTT); assay type: cell-based; settings: two days
# Method: COS7 cells were seeded onto a 96-well plate (medium 100 μl/well) at 10000 cells per well. At the same time, SPF-3059-1 of various concentrations was added and the cells were cultivated for two days in the presence of 5% CO2 at 37° C. Each well was then added with 10 μl of MTT solution at 5 mg/ml and cultured for another one hour. Subsequently, the culture supernatant was removed and formazan (an MTT derivative produced in viable cells) accumulated in the cells was dissolved by the addition of 50 μl DMSO and then the absorbance at 570 nm was measured to determine the proliferation of COS7 cells. […] The longitudinal and lateral axes in the figure show cell proliferation and the SPF-3059-1 concentration, respectively. Besides, the standard deviation (n=4) was added to each column.
# The same effect on cell proliferation as in Example 9 was examined for the compounds, SPF-3059-1, SPF-3059-2 and SPF-3059-5. The wells with these compounds were served as samples, the wells with PBS were served as control, and the wells for which the experiment was carried out without adding the cells was served as blank. IC50 (μg/ml), the inhibitory rate for cell proliferation, was determined, which is calculated by the equation shown below. The inhibitory rate for cell proliferation (%)=(1−(absorbance of a sample well−absorbance of the blank well)/(absorbance of the control well−absorbance of the blank well))×100
smiles,measurement,setting,value
CC(=O)c1c(C)c(C(=O)C2COc3cc(O)c(O)c(C(=O)O)c3C2=O)cc2c(=O)c3c(C(=O)O)c(O)c(O)cc3oc12 (stereo not shown) [SPF-3059-1],"inhibition of Sema3A collapse activity, Pre-Mix sample",Sema3A; Sema3A pre-mixed with 0.25 μg/ml compound,Sema3A activity was inhibited; also recorded: inhibition of collapse activity was observed
same,"inhibition of Sema3A collapse activity, compound and Sema3A independently added",Sema3A,inhibitory activity will not be observed; also recorded: Inhibition of collapse activity was not observed
same,IC50,"COS7 cells; Chlorocebus aethiops, COS-7, 48 h, read-out: IC50, inhibitory rate for cell proliferation",> 300 µg/mL
same,suppressing activity for cell proliferation (in words),COS7 cells,no suppressing activity
